Measurements: patent US10045962B2 (priority 2014, dated 2018)
Where “and” joins values, the source holds several entries; their conditions need not be identical. Equal values may be shown once. Where a name gives a salt, the structure may show the parent alone. Read-outs that look alike come from different tables or passages of the source.

Legend:
[1] = test system: TSGH (urinary bladder carcinoma); conditions: 10 μM, 72 hours
Procedure: (§1) These cells were seeded at an amount of 2×10^6 cells, and then added with the culture medium for cultivating the cells to a volume of 10 mL, followed by cultivation for 2 to 3 days. After counting the cell number, these cells were respectively plated in a 96-well plate, in which each well has a fixed cell number of 3000 and a volume of 100 μL.
(§2) After removing the culture medium in the 96-well plate, each well was added with 100 μL of 10 μM commercial drug and then placed for 72 hours. Thereafter, each well was further added with 100 μL of a diluted WST-1 solution (the dilution ratio for the culture medium: WST-1 stock solution (wt/wt) is 9:1).

LNCap = conditions: 10 μM, 72 hours, single experiments not given
[2] = test system: MDA-MB-231 (mammary gland, adenocarcinoma); conditions: 10 μM, 72 hours
Procedure: as §1, §2
(§3) Each cancer cell inhibitory experiment was repeated for 4 times, followed by calculation of the mean values thereof, which were shown in the following tables.

NIH-OVCAR-3 = conditions: 10 μM, 72 hours
Procedure: as §1, §2

[3] = test system: Hep3B (hepatocellular carcinoma); conditions: 10 μM, 72 hours
Procedure: as §1, §2, §3

AsPC-1 = conditions: 10 μM, 72 hours
Procedure: as §1, §2, §3

[4] = test system: SAS (tongue squamouscell carcinoma); conditions: 10 μM, 72 hours
Procedure: as §1, §2, §3

[5] = test system: BEAS-2B (lung epithelial); conditions: 10 μM, 72 hours
Procedure: as §1, §2
Each cell inhibitory experiment was repeated for 4 times, followed by calculation of the mean values thereof, which were shown in the following tables.

Breast cancer = conditions: summary over cell lines, 10 μM, 72 hours
Procedure: as §1, §2

[6] = test system: liver cancer cells (HepG2); conditions: for Increased tumor volume, Mean / Volume, Mean / Increased tumor volume / L (longest diameter of the tumor) / Volume / W (shortest diameter of the tumor) / Weight: intraperitoneal daily; for Increased tumor volume, Mean / Volume, Mean: mean of 3 mice; for Increased tumor volume / L (longest diameter of the tumor) / Volume / W (shortest diameter of the tumor) / Weight: mice A, B, C
Procedure: This experiment was performed with female BALB/cAnN.Cg-Foxn1nu/CrlNarl mice with a weight of around 21±1 gas samples. After subcutaneous injection of liver cancer cells (HepG2), the mice were randomly divided into three groups based on the test drug, i.e., normal control group, low dosage group (100 mg/kg/day) and high dosage group (200 mg/kg/day). After the tumor was grown to be over 100 mm^3, the mice were treated with the drug via intraperitoneal injection daily. The tumor size was measured two times per week. The formula for determining the tumor size was as follows: (L×W^2)/2, in which L represents the longest diameter of the tumor and W represents the shortest diameter of the tumor.

[7] = BEAS-2B normal lung epithelial cells, single experiment
[8] = High dosage (200 mg/kg/day), Fifth measurement
[9] = High dosage (200 mg/kg/day), First measurement
[10] = High dosage (200 mg/kg/day), First measurement, hydrochloride
[11] = High dosage (200 mg/kg/day), Fourth measurement
[12] = High dosage (200 mg/kg/day), Second measurement
[13] = High dosage (200 mg/kg/day), Second measurement, hydrochloride
[14] = High dosage (200 mg/kg/day), Third measurement
[15] = Low dosage (100 mg/kg/day), Fifth measurement
[16] = Low dosage (100 mg/kg/day), Fifth measurement, hydrochloride
[17] = Low dosage (100 mg/kg/day), First measurement
[18] = Low dosage (100 mg/kg/day), First measurement, hydrochloride
[19] = Low dosage (100 mg/kg/day), Fourth measurement
[20] = Low dosage (100 mg/kg/day), Fourth measurement, hydrochloride
[21] = Low dosage (100 mg/kg/day), Second measurement
[22] = Low dosage (100 mg/kg/day), Second measurement, hydrochloride
[23] = Low dosage (100 mg/kg/day), Third measurement
[24] = Low dosage (100 mg/kg/day), Third measurement, hydrochloride

SMILES: CNCC[C@H](Oc1cccc2ccccc12)c1cccs1 [duloxetine HCl, Duloxetine hydrochloride]
- Mean survival rate (%) ([1]; mean of 4 experiments): 49.2%
- survival rate 0510-10 min ([1]; single experiment): 36.1%
- survival rate 0512-10 min ([1]; single experiment): 59.0%
- survival rate 0515-10 min ([1]; single experiment): 61.2%
- survival rate 0517-10 min ([1]; single experiment): 40.5%
- Mean (survival rate) (LNCap): 72.8%
- Mean (survival rate) ([2]; mean of 3 printed experiments): 65.9%
- survival rate 0612-10 min ([2]; single experiment): 53.4%
- survival rate 0614-10 min ([2]; single experiment): 70.2%
- survival rate 0616-10 min ([2]; single experiment): 74.3%
- Mean survival rate (%) (NIH-OVCAR-3; mean of 4 experiments): 68.2%
- survival rate 7-3-30 min (NIH-OVCAR-3; single experiment): 64.8%
- survival rate 7-4-30 min (NIH-OVCAR-3; single experiment): 74.6%
- survival rate 7-7-30 min (NIH-OVCAR-3; single experiment): 78.5%
- survival rate -4-30 min (NIH-OVCAR-3; single experiment): 55.0%
- Mean (survival rate) ([3]; mean of 4 experiments): 47.9%
- survival rate 0612-20 min ([3]; single experiment): 41.4%
- survival rate 0614-20 min ([3]; single experiment): 53.3%
- survival rate 0616-20 min ([3]; single experiment): 36.2%
- survival rate 0619-20 min ([3]; single experiment): 60.6%
- Mean survival rate (%) (AsPC-1; mean of 4 experiments): 60.3%
- survival rate 1-4-30 min (AsPC-1; single experiment): 61.7%
- survival rate 1-7-3-30 min (AsPC-1; single experiment): 75.7%
- survival rate 1-7-4-30 min (AsPC-1; single experiment): 78.0%
- survival rate 1-7-7-30 min (AsPC-1; single experiment): 26.0%
- Survival rate (%) ([4]; Lingual cancer (SAS), summary table): 82.44%
- Mean survival rate (%) ([4]; SAS, mean of 4 experiments): 82.4%
- survival rate 6-26-10 min ([4]; SAS, single experiment): 45.7%
- survival rate 6-28-10 min ([4]; SAS, single experiment): 88.9%
- survival rate 6-30-10 min ([4]; SAS, single experiment): 96.2%
- survival rate 7-3-10 min ([4]; SAS, single experiment): 98.9%
- Mean survival rate (%) ([5]; BEAS-2B normal lung epithelial cells, mean of 4 experiments): 72.5%
- survival rate 0510-10 min [5, 7]: 59.5%
- survival rate 0512-10 min [5, 7]: 76.3%
- survival rate 0515-10 min [5, 7]: 74.7%
- survival rate 0517-10 min [5, 7]: 79.6%
- Survival rate (%) ([5]; Lung epithelial cells (BEAS-2B normal cells), summary table): 72.50%
- Survival rate (%) (Breast cancer): 48.57%
- Increased tumor volume, Mean [6, 8]: 0 mm^3
- Volume, Mean [6, 8]: 0 mm^3
- Increased tumor volume [6, 8]: 0 mm^3
- L (longest diameter of the tumor) [6, 8]: 0 mm
- Volume [6, 8]: 0 mm^3
- W (shortest diameter of the tumor) [6, 8]: 0 mm
- Weight [6, 8]: 20 g
- Weight ([6]; High dosage (200 mg/kg/day), Fifth measurement, hydrochloride): 21 g
- Increased tumor volume, Mean [6, 9]: 78.5 mm^3
- Volume, Mean [6, 9]: 78.5 mm^3
- Weight [6, 9]: 20 g
- L (longest diameter of the tumor) [6, 10]: 6 mm and 8 mm and 7 mm
- W (shortest diameter of the tumor) [6, 10]: 4 mm and 5 mm
- Weight [6, 10]: 19 g and 18.5 g
- Increased tumor volume, Mean [6, 11]: −13.3333 mm^3
- Volume, Mean [6, 11]: 0 mm^3
- L (longest diameter of the tumor) [6, 11]: 0 mm
- Volume [6, 11]: 0 mm^3
- W (shortest diameter of the tumor) [6, 11]: 0 mm
- Weight [6, 11]: 20 g
- Weight ([6]; High dosage (200 mg/kg/day), Fourth measurement, hydrochloride): 21 g
- Increased tumor volume, Mean [6, 12]: −25.8333 mm^3
- Volume, Mean [6, 12]: 52.67 mm^3
- Weight [6, 12]: 20 g
- L (longest diameter of the tumor) [6, 13]: 6 mm and 5 mm and 7 mm
- W (shortest diameter of the tumor) [6, 13]: 4 mm and 3 mm and 5 mm
- Weight [6, 13]: 23 g
- Increased tumor volume, Mean [6, 14]: −39.3333 mm^3
- Volume, Mean [6, 14]: 13.33 mm^3
- Weight ([6]; High dosage (200 mg/kg/day), Third measurement, hydrochloride): 19 g and 18.5 g
- Increased tumor volume, Mean [6, 15]: −8.333 mm^3
- Volume, Mean [6, 15]: 63.33 mm^3
- Weight [6, 15]: 20 g
- L (longest diameter of the tumor) [6, 16]: 6 mm and 4 mm
- W (shortest diameter of the tumor) [6, 16]: 6 mm and 5 mm and 4 mm
- Weight [6, 16]: 22 g
- Increased tumor volume, Mean [6, 17]: 113.1667 mm^3
- Volume, Mean [6, 17]: 113.1667 mm^3
- Increased tumor volume [6, 18]: 87.5 mm^3 and 144 mm^3 and 108 mm^3
- L (longest diameter of the tumor) [6, 18]: 7 mm and 8 mm and 6 mm
- Volume [6, 18]: 87.5 mm^3 and 144 mm^3 and 108 mm^3
- W (shortest diameter of the tumor) [6, 18]: 5 mm and 6 mm
- Weight [6, 18]: 19 g and 18 g
- Increased tumor volume, Mean [6, 19]: −18.1667 mm^3
- Volume, Mean [6, 19]: 71.67 mm^3
- Weight [6, 19]: 20 g
- L (longest diameter of the tumor) [6, 20]: 6 mm and 4 mm
- W (shortest diameter of the tumor) [6, 20]: 6 mm and 4 mm and 5 mm
- Weight [6, 20]: 22 g
- Increased tumor volume, Mean [6, 21]: −4.167 mm^3
- Volume, Mean [6, 21]: 109 mm^3
- Weight [6, 21]: 20 g
- L (longest diameter of the tumor) [6, 22]: 6 mm and 7 mm
- Volume [6, 22]: 75 mm^3 and 126 mm^3
- W (shortest diameter of the tumor) [6, 22]: 5 mm and 6 mm
- Weight [6, 22]: 19 g and 21 g
- Increased tumor volume, Mean [6, 23]: −19.1667 mm^3
- Volume, Mean [6, 23]: 89.83 mm^3
- L (longest diameter of the tumor) [6, 23]: 7 mm
- W (shortest diameter of the tumor) [6, 24]: 6 mm and 4 mm and 5 mm
- Weight [6, 24]: 20.5 g and 23.5 g and 19 g
- inhibitory effect against the tumors ([6]; both low dosage and high dosage, FIG. 2): great inhibitory effect
- weight loss during the experiments ([6]; each group of mice, high or low dosage): no obvious weight loss
- health condition / death during the treatment ([6]; either high or low dosage): not die during the treatment
- effect on tumor volume, high versus low dosage ([6]; high dosage, FIG. 3): better effect
- increase of tumor volume ([6]; low dosage and high dosage, FIG. 3): effectively inhibit the increase of tumor volume
